In US20180201594A1, “Compound pac-1 or salt thereof and pharmaceutical composition comprising same” (priority 2015, published 2018):
Values after ≈ are worked out from the molar mass of the structure shown. Marks after values point to notes of the source that are not given here.

Legend:
[1] = system: HGC-27, K562/A02, A549, HT-1080 cells; assay: Tumor cell proliferation (MTT or CCK-8); assay type: cell-based, human; conditions: 48 h, FIG. 5-8
Excerpt: Experimental cells: gastric cancer cell line HGC-27, non-small cell lung cancer A549, human chronic myeloid leukemia cells doxorubicin resistant strains K562/A02, human fibrosarcoma HT-1080, human chronic myeloid leukemia cell K562.
Experimental materials: PAC-1 needle crystal (prepared according to the method described in Quinn P. Peterson et al., J. Med. Chem. 2009, 52, 5721-5731), MTT solution (Amresco specification: 1 g, batch number: 2035B358), DMSO (Analytical Pure, Beijing Chemical Factory), 96-well plates (Corning), CCK-8 (Japanese Tongren Chemical Research Institute, specification: 500test, batch number: DJ706), fetal bovine serum was the product from the United States GIBCO, batch number: 608759, RPMI-1640 is the product of Hyclone, batch number: NWK0492, 0.25% Trypsin-EDTA is the product from the United States GIBCO company, batch number: 10T774768, DMSO: USA Sigma Corporation.
The cells in logarithmic growth phase were collected. The cells was digested and the cell density was adjusted into 1-5×10^5 cells/mL, 100 μL per well in 96-well culture plate. The plated was cultured in a incubator with 37 ? , 5% CO2 saturated humidity. After adherent, different concentrations of PAC-1 and ZYS-1 were added for dosing groups. 6 dosage groups were set, with at least three parallel wells set in each group. […]

[2] = system: HGC-27 cells; assay: Two-dimensional migration (cell scratch assay); assay type: cell-based; conditions: n = 3
Experimental: HGC-27 cells in logarithmic growth phase were collected. The cell with density of 5×10^5 cells/mL was spread onto 24-well plates (0.5 mL per well). RMPI-1640 culture medium with 10% fetal bovine serum was added and cultured for 24 h to form monolayer cells. The monolayer cells were scratched in a line by 20 μL pipette gun tip, which was washed with PBS three times. Then, drug-containing media with 2% fetal bovine serum s were added, which concentrations were 2 μM, 4 μM, respectively. The media were cultured in the incubator with 37 ? , 5% CO2 saturated humidity. Sampled at 0, 4, 8, 12 h and took the pictures. The area where cells were migrated from scratch edge to scratch within the same field was counted by software.

[3] = system: HGC-27 cells; assay: Three-dimensional migration (Transwell assay), HGC-27; assay type: cell-based; conditions: for Cell number (transmembrane cells): 24 h, n = 9
Experimental: (§1) Starved cells were digested and collected, which were suspended in serum-free medium. The cell intensity was adjusted into 3×10^5 s cells/mL. 100 μL of the cell suspension was added into the upper chamber and 700 μL of medium with 10% serum to the lower chamber per well. According to the experimental design, 50 μL serum-free medium was added per well for the control group, 50 μL of drug-containing serum-free medium was added for the administration groups. They were continued to be cultured in the incubator for another 24 h. The upper chamber was taken, with methanol fixation for 30 min, dyed with Giemsa stain for 30 min, rinsed with clean water twice. The cells on the bottom membrane surface of the upper chamber were carefully wiped off with a wet cotton swab, dried in the air. With the bottom up, they were transferred onto glass slide and sealed with neutral gum. Under the microscope, nine random fields were taken and the transmembrane cells therein were counted. The average values were statistically calculated.

[4] = system: HT-1080 cells; assay: Three-dimensional migration (Transwell assay), HT-1080; assay type: cell-based, human; conditions: for Cell number (transmembrane cells): 24 h, n = 9
Experimental: as §1

[5] = system: HT-1080 cells; assay: HT-1080 cell invasion (Transwell, matrigel); assay type: cell-based, human
Experimental: The matrigel was thawed at 4° C. overnight and diluted with serum-free medium precooled at 4° ? t 1:2. 30 μL of the diluted matrigel was added vertically in the center of the bottom of the upper chamber, allowed to stand at r.m. for 20 min, and then incubated at 37° C. for 60 min. It was observed under the microscope until gelling, hydrated with the serum-free medium for use. The treated tumor cells with drugs for 48 h were digested and collected, and then the cells were suspended with serum free medium. The cell intensity was adjusted into 2.5×10^5 cells/mL, and kept cultured in the incubator for another 24 h. The upper chamber was taken, with methanol fixation for 30 min, dyed with Giemsa stain for 30 min, rinsed with clean water twice. The cells on the bottom membrane surface of the upper chamber were carefully wiped off with a wet cotton swab, dried in the air. With the bottom up, they were transferred onto glass slide and sealed with neutral gum. Under the microscope, nine random fields were taken and the transmembrane cells therein were counted. The average values were statistically calculated.

[6] = system: HUVECs; assay: HUVEC viability (MTT method); assay type: cell-based; conditions: Homo sapiens, 48 h
Experimental: Test Methods: The effect of ZYS-1 on the viability of HUVECs was determined by MTT method. The HUVECs in logarithmic growth phase were taken and digested with 0.25% trypsin, centrifuged and resuspended in ECM complete medium to formulate into […] single cell suspension. The cells were seeded in 96-well culture plates at a density of 1×10^4 cells/well, with a volume of 100 μL per well. They were placed and cultured in the incubator with 37®, 5% CO2. After culturing 24 h, […] different concentrations of ZYS-1 solution were added to obtain the final concentrations of drugs at 0.1, 0.5, 1, 5, 10, 50 and 100 μM. Meanwhile, the positive control group was set as etoposide at a final concentration of 10 μM, and the negative control was an equal amount of 0.1% DMSO solution. Each concentration of the experimental groups and the control groups all were set five replicates, with 100 μL of drugs per well. The blank control group is additionally set as 200 μL complete medium. The cells were placed and cultured in the incubator with 37 m, 5% CO2. After culturing for 48 h, 20 μL MTT solution (5 mg/mL) was added to each well, which was continued to be cultured for another 4 h. […] The light absorbance value of each well was measured by enzyme-linked immunosorbent assay. The measured wavelength was 570 nm and the result was recorded. […]

[7] = Solubility comparison of ZYS-1 and PAC-1 needle crystal (HPLC); assay type: physicochemical; conditions: Water, room temperature
[8] = Homo sapiens, HGC-27, 24 h, read-out: Inhibition Rate
[9] = Homo sapiens, HT-1080, 24 h, read-out: Inhibition Rate

## C=CCc1cccc(/C=N/NC(=O)CN2CCN(Cc3ccccc3)CC2)c1O [ZYS-1, 1-Piperazineacetic acid, 4-(phenylmethyl)-2-[[2-hydroxy-3-(2-propen-1-yl)phenyl]methylene]]
[1]
  antitumor efficacy (cell proliferation) compared with PAC-1 needle crystal: stronger antitumor efficacy than PAC-1 needle crystal
[2]; 2 μM, 4 h
  area of cell migration into scratch: 0.12 ± 0.01 mm^2
[2]; 2 μM, 8 h
  area of cell migration into scratch: 0.16 ± 0.02 mm^2
[2]; 2 μM, 12 h
  area of cell migration into scratch: 0.20 ± 0.02 mm^2
[2]; 4 μM, 4 h
  area of cell migration into scratch: 0.04 ± 0.01* mm^2
[2]; 4 μM, 8 h
  area of cell migration into scratch: 0.07 ± 0.01* mm^2
[2]; 4 μM, 12 h
  area of cell migration into scratch: 0.08 ± 0.02** mm^2
[3]; 2 μM
  Cell number (transmembrane cells): 33.00 ± 10.00
[3]; 4 μM
  Cell number (transmembrane cells): 26.30 ± 13.37
[3]; 8 μM
  Cell number (transmembrane cells): 22.44 ± 9.82
[3]; [8]
  inhibition at 2 µM: 24.6%
  inhibition at 4 µM: 39.9%
  inhibition at 8 µM: 48.7%
[4]; 2 μM
  Cell number (transmembrane cells): 24.67 ± 8.46
[4]; 4 μM
  Cell number (transmembrane cells): 16.58 ± 4.18
[4]; 8 μM
  Cell number (transmembrane cells): 16.08 ± 5.07
[4]; [9]
  inhibition at 2 µM: 33.5%
  inhibition at 4 µM: 55.3%
  inhibition at 8 µM: 56.6%
[5]; 2 μM and 4 μM administration groups
  numbers of invasive cells: smaller than those from the control group
[5]; 8 μM administration group
  numbers of invasive cells: No cell from 8 μM administration group invaded into the lower chamber
[6]
  IC50: 2540 nM
[7]
  Solubility: 5.6 µg/mL (≈ 14.3 µM)
